Measurements as given in patent publication US20130029928A1 (priority 2010, published 2013).
Where two headings read alike, the source gives them in different places.

Test: Phase I study CXR1002-001: plasma pharmacokinetics (LC-MS/MS)
Format: in vivo, human
Conditions: human, plasma, oral; for concentration at 168 h: 168 hr (Day 8)
Text: PK samples, PD (fasting) samples, blood glucose, and blood triglyceride samples, were taken over a 6-week period.
Dose limiting toxicity (DLT) will be based on the toxicity assessments over the first 3-week period of the repeat dosing schedule. PK samples (single blood sample) were taken on the following basis: • Every 6 weeks during the repeat dosing phase • If dosing is interrupted or stopped, samples will be taken at intervals according to patient convenience • PK sampling for safety evaluation may take place at any time, as clinically indicated
Plasma samples were collected after the single 50 mg dose at the following timepoints: Pre-dose, and then 0.25, 0.5, 0.75, 1, 1.5, 2, 3, 4, 6, 24, 48, and 72 hours after administration and then once weekly at weeks 2, 3, 4, 5, and 6 (days 8, 15, 22, 29, and 36). For patients treated with the weekly repeat dose, plasma samples were collected at the following timepoints: Pre-dose and then 2, 3, 4 and 24 hours after administration for a total of 6 weeks. Thereafter a single sample was collected every 6 weeks for monitoring of exposure during long term treatment. Plasma samples were processed at site and stored at −80° C. prior to batch shipment to the analytical laboratory.

[1] = 50 mg, Patient 004 Dose 50 mg, read-out: Concentration
[2] = 100 mg, Patient 005 Dose 100 mg, read-out: Concentration

Compound: O=C(O)C(F)(F)C(F)(F)C(F)(F)C(F)(F)C(F)(F)C(F)(F)C(F)(F)F [CXR1002]
- concentration at 0.5 h (50 mg, Patient 003 Dose 50 mg, 0.5 hr): 11.3 µM
- concentration at 0.75 h (50 mg, Patient 003 Dose 50 mg, 0.75 hr): 17.1 µM
- concentration at 1 h (50 mg, Patient 003 Dose 50 mg, 1 hr): 20.7 µM
- concentration at 1.5 h (50 mg, Patient 003 Dose 50 mg, 1.5 hr): 24.6 µM
- concentration at 2 h (50 mg, Patient 003 Dose 50 mg, 2 hr, read-out: Concentration): 24.5 µM
- concentration at 3 h (50 mg, Patient 003 Dose 50 mg, read-out: Concentration): 21.2 µM
- concentration at 4 h (50 mg, Patient 003 Dose 50 mg, 4 hr, read-out: Concentration): 18 µM
- concentration at 24 h (50 mg, Patient 003 Dose 50 mg, 24 hr, read-out: Concentration): 19.5 µM
- concentration at 48 h (50 mg, Patient 003 Dose 50 mg, 48 hr): 18.1 µM
- concentration at 72 h (50 mg, Patient 003 Dose 50 mg, 72 hr): 18.4 µM
- concentration at 192 h (50 mg, Patient 003 Dose 50 mg, 192 hr (Day 8), read-out: Concentration): 8.6 µM
- concentration at 360 h (50 mg, Patient 003 Dose 50 mg, 360 hr (Day 15), read-out: Concentration): 7.2 µM
- concentration at 528 h (50 mg, Patient 003 Dose 50 mg, 528 hr (Day 22), read-out: Concentration): 6.5 µM
- concentration at 696 h (50 mg, Patient 003 Dose 50 mg, 696 hr (Day 29), read-out: Concentration): 5 µM
- concentration at 864 h (50 mg, Patient 003 Dose 50 mg, 864 hr (Day 36), read-out: Concentration): 6.5 µM
- concentration at 0 hr (50 mg, Patient 004 Dose 50 mg, 0 hr): 0.1 µM
- concentration at 2 hr (50 mg, Patient 004 Dose 50 mg, 2 hr, read-out: Concentration): 19.9 µM
- concentration at 4 hr (50 mg, Patient 004 Dose 50 mg, 4 hr, read-out: Concentration): 19.3 µM
- concentration at 24 hr (50 mg, Patient 004 Dose 50 mg, 24 hr (Day 2), read-out: Concentration): 14.4 µM
- concentration at 168 h [1]: 12.8 µM
- concentration at 170 h [1]: 35.7 µM
- concentration at 171 h [1]: 40.4 µM
- concentration at 172 h [1]: 36 µM
- concentration at 192 h (50 mg, Patient 004 Dose 50 mg, 192 hr (Day 9), read-out: Concentration): 22.5 µM
- concentration at 336 hr (50 mg, Patient 004 Dose 50 mg, 336 hr (Day 15), read-out: Concentration): 21.8 µM
- concentration at 338 hr (50 mg, Patient 004 Dose 50 mg, 338 hr, read-out: Concentration): 31.1 µM
- concentration at 339 hr (50 mg, Patient 004 Dose 50 mg, 339 hr, read-out: Concentration): 38.8 µM
- concentration at 340 hr (50 mg, Patient 004 Dose 50 mg, 340 hr, read-out: Concentration): 40.6 µM
- concentration at 360 hr (50 mg, Patient 004 Dose 50 mg, 360 hr (Day 16), read-out: Concentration): 38.8 µM
- concentration at 504 h (50 mg, Patient 004 Dose 50 mg, 504 hr (Day 22), read-out: Concentration): 33.4 µM
- concentration at 506 h (50 mg, Patient 004 Dose 50 mg, 506 hr, read-out: Concentration): 46.3 µM
- concentration at 507 h (50 mg, Patient 004 Dose 50 mg, 507 hr, read-out: Concentration): 50.4 µM
- concentration at 508 h (50 mg, Patient 004 Dose 50 mg, 508 hr, read-out: Concentration): 47.9 µM
- concentration at 528 h (50 mg, Patient 004 Dose 50 mg, 528 hr (Day 23), read-out: Concentration): 50 µM
- concentration at 672 hr (50 mg, Patient 004 Dose 50 mg, 672 hr (Day 29), read-out: Concentration): 52.3 µM
- concentration at 674 hr (50 mg, Patient 004 Dose 50 mg, 674 hr, read-out: Concentration): 65.8 µM
- concentration at 675 hr (50 mg, Patient 004 Dose 50 mg, 675 hr, read-out: Concentration): 61.7 µM
- concentration at 676 hr (50 mg, Patient 004 Dose 50 mg, 676 hr, read-out: Concentration): 56.7 µM
- concentration at 696 hr (50 mg, Patient 004 Dose 50 mg, 696 hr (Day 30), read-out: Concentration): 77.5 µM
- concentration at 840 h (50 mg, Patient 004 Dose 50 mg, 840 hr (Day 36), read-out: Concentration): 63 µM
- concentration at 842 h (50 mg, Patient 004 Dose 50 mg, 842 hr, read-out: Concentration): 78.6 µM
- concentration at 843 h (50 mg, Patient 004 Dose 50 mg, 843 hr, read-out: Concentration): 80.5 µM
- concentration at 864 h (50 mg, Patient 004 Dose 50 mg, 864 hr (Day 37), read-out: Concentration): 81.1 µM
- half-life (50 mg, after a single dose, 6 week sampling period, read-out: half-life of elimination): > 42 days
- concentration at 0 h (100 mg, Patient 005 Dose 100 mg, 0 hr): 0.23 µM
- concentration at 2 h (100 mg, Patient 005 Dose 100 mg, 2 hr, read-out: Concentration): 19.8 µM
- concentration at 3 h [2]: 23 µM
- concentration at 4 h (100 mg, Patient 005 Dose 100 mg, 4 hr, read-out: Concentration): 23.7 µM
- concentration at 24 h (100 mg, Patient 005 Dose 100 mg, 24 hr (Day 2), read-out: Concentration): 19.9 µM
- concentration at 168 h [2]: 19 µM
- concentration at 170 h [2]: 42.9 µM
- concentration at 171 h [2]: 50.8 µM
- concentration at 172 h [2]: 45.7 µM
- concentration at 192 h (100 mg, Patient 005 Dose 100 mg, 192 hr (Day 9), read-out: Concentration): 34.4 µM
- concentration at 336 h (100 mg, Patient 005 Dose 100 mg, 336 hr (Day 15), read-out: Concentration): 47.8 µM
- concentration at 338 h (100 mg, Patient 005 Dose 100 mg, 338 hr, read-out: Concentration): 80.2 µM
- concentration at 339 h (100 mg, Patient 005 Dose 100 mg, 339 hr, read-out: Concentration): 70.1 µM
- concentration at 340 h (100 mg, Patient 005 Dose 100 mg, 340 hr, read-out: Concentration): 53.9 µM
